Assay results taken from article PMC4502315, “High Potency of a Novel Resveratrol Derivative, 3,3′,4,4′-Tetrahydroxy-trans-stilbene, against Ovarian Cancer Is Associated with an Oxidative Stress-Mediated Imbalance between DNA Damage Accumulation and Repair” (Oxidative Medicine and Cellular Longevity, 2015).
Where two headings read alike, the source gives them in different places.

What was measured:
HOSE cells [1] = assay: MTT viability assay, HOSE cells; format: cell-based, human; conditions: 24 h; for IC50: Homo sapiens, CalcuSyn; for concentration up to which viability was unchanged: cytotoxicity tests (MTT and LDH release)
Protocol: (§1) Cell viability was assessed with the MTT test and with lactate dehydrogenase (LDH) release assay. As per the MTT method, normal and cancer cells were seeded into 96-well plates at high density and allowed to attach overnight. Then they were incubated in a medium containing 1.25 mg/mL of the MTT salt [3-(4,5-dimethylthiazol-2-yl)-2,5-diphenyltetrazolium bromide] for 24 h at 37°C. The generated formazan was solubilized with 20% sodium dodecyl sulphate and 50% N,N-dimethylformamide. Absorbance of the converted dye was recorded at 595 nm with a reference wavelength of 690 nm.
(§2) In order to examine the effect of 3,3′,4,4′-THS on the viability of ovarian cancer cells and to compare its activity with RVT, subconfluent cultures of A2780, OVCAR-3, and SKOV-3 cells were subjected to a wide range of stilbene concentrations (0–500 μM) for 24 h; then MTT and LDH release assays were performed.

HOSE cells [2] = assay: Oxidative DNA damage (8-OH-dG immunoassay), HOSE cells; format: cell-based, human; conditions: 24 h, percentage of control cells
Protocol: (§3) Oxidative DNA damage was assessed by measuring the 8-OH-dG concentration with a competitive immunoassay (Cell Biolabs Inc.), as per manufacturer's instructions. The efficiency of 8-OH-dG repair was estimated after cell recovery for 24 h in standard growth medium. In order to examine the activity of DNA glycosylase I, reverse transcription PCR was performed. RNA extraction was carried out using the RNA Bee (Tel-Test, Friendswood, Texas, USA) and purified according to the manufacturer's protocol. One microgram of RNA was reverse transcribed into cDNA with random hexamer primers, and cDNA was subjected to PCR. The profile of the replication cycles was denaturation at 94°C for 50 s, annealing at 58°C for 50 s, and polymerization at 72°C for 1 min. In each reaction, the expression of glyceraldehyde-3-phosphate dehydrogenase (GAPDH) served as the internal control. The primers used for PCR were as follows: hOGG1 forward, 5′-[…]-3′; hOGG1 reverse, 5′-TAGCCCGCCCTGTTCTTC-3′ designed to amplify a 551-bp region; GAPDH forward, 5′-CCATGGAGAAGGCTGGGG-3′; and GAPDH reverse 5′-[…]-3′ designed to amplify a 194-bp region (total number of cycles: 28). The PCR products were separated on 3% agarose gels stained with ethidium bromide and then visualized.

[3] = system: superoxide dismutase (SOD); assay: SOD activity in cell lysates, A2780; format: cell-based, human; conditions: 24 h, 10, 50, 100 μM tested
Protocol: (§4) Total activity of superoxide dismutase (SOD) was measured in cell lysates with a commercially available kit (R&D Systems Europe, Abingdon, UK), while the activity of catalase (CAT) was estimated by using the OxiSelect Catalase Activity Assay Kit (Cell Biolabs Inc., San Diego, CA, USA). Both assays were performed according to the manufacturer's instructions.

HPMCs = assay: MTT viability assay, HPMCs; format: cell-based, human; conditions: 24 h; for IC50: Homo sapiens, CalcuSyn; for concentration up to which viability was maintained: cytotoxicity tests (MTT and LDH release)
Protocol: as §1, §2

[4] = system: superoxide dismutase (SOD); assay: SOD activity in cell lysates, SKOV-3; format: cell-based, human; conditions: 24 h, 10, 50, 100 μM tested
Protocol: as §4

OVCAR-3 cells [5] = assay: ROS production (H2DCFDA), OVCAR-3; format: cell-based, human; conditions: 24 h, 10, 50, 100 μM tested
Protocol: (§5) ROS production was assessed in cells probed with a fluorescent dye, 2′,7′-dichlorodihydrofluorescein diacetate (H2DCFDA; 5 μM) (Molecular Probes, Eugene, USA) for 45 min at 37°C. Fluorescence intensity in cell lysates was monitored in a Victor2 spectrofluorometer with excitation at 485 nm and emission at 535 nm.

caspase-3 = assay: Caspase-3 activity in ovarian cancer cell lysates; format: cell-based, human; conditions: ovarian cancer cells (A2780, OVCAR-3, SKOV-3); 24 h
Protocol: (§6) Identification of apoptosis was based on the presence of DNA condensation in cells stained with a fluorescent dye, Hoechst 33258 (Molecular Probes, Eugene, OR). Cells were grown on Lab-Tek Chamber Slides (Nunc, Roskilde, Denmark), fixed with 4% formaldehyde for 10 min and washed twice with PBS. Then the cells were incubated with Hoechst 33258 (0.1 μg/mL) for 5 min in the dark. After washing with PBS, stained nuclei were observed and counted under a Zeiss Axio Observer D1 fluorescence microscope (Carl Zeiss, Jena, Germany). The activity of caspases 3, 8, and 9 was quantified in the cell lysates using specific colorimetric kits (Abcam, Cambridge, UK) according to the manufacturer's instructions.

catalase (CAT) = assay: CAT activity, SKOV-3; format: cell-based, human; conditions: 24 h, 10, 50, 100 μM tested
Protocol: as §4

caspase-9 = assay: Caspase-9 activity in ovarian cancer cell lysates; format: cell-based, human; conditions: ovarian cancer cells (A2780, OVCAR-3, SKOV-3); 24 h
Protocol: as §6

SKOV-3 = assay: LDH release assay, SKOV-3; format: cell-based; conditions: Homo sapiens; for IC50: SK-OV-3, 24 h, CalcuSyn
Protocol: As per LDH release, the measurements were performed using the commercially available Pierce LDH Cytotoxicity Assay Kit (Pierce Biotechnology, Rockford, IL, USA). In this assay, cells with damaged plasma membranes release LDH into the culture environment; then the enzyme catalyses the conversion of lactate to pyruvate, which is accompanied by a reduction of NAD^+ to NADH. Afterwards, diaphorase uses NADH to reduce a tetrazolium salt to a formazan whose level is proportional to LDH activity. The absorbance emitted by the formazan was monitored at 490 nm with a reference wavelength of 680 nm.
as §2

A2780 cells [6] = assay: ROS production (H2DCFDA), A2780; format: cell-based, human; conditions: 24 h, 10, 50, 100 μM tested
Protocol: as §5

A2780 cells [7] = assay: SA-β-Gal activity (senescence), A2780; format: cell-based, human; conditions: 24 h, 10, 50, 100 μM tested
Protocol: The activity of SA-β-Gal in the cell extracts was quantified by measuring the rate of conversion of 4-methylumbelliferyl-β-D-galactopyranoside to 4-methylumbelliferone, as described in [19]. In order to visualize expression of the enzyme in the cancer cell cytoplasm, cytochemical staining for SA-β-Gal was performed according to Dimri et al..

OVCAR-3 cells [8] = assay: Oxidative DNA damage (8-OH-dG immunoassay), OVCAR-3; format: cell-based, human; conditions: 24 h, 10, 50, 100 μM tested
Protocol: as §3

A2780 = assay: MTT viability assay, A2780; format: cell-based; conditions: Homo sapiens, 24 h
Protocol: as §1, §2

OVCAR-3 = assay: MTT viability assay, OVCAR-3; format: cell-based; conditions: Homo sapiens, 24 h; for IC50: CalcuSyn
Protocol: as §1, §2

A2780 cells [9] = assay: Oxidative DNA damage (8-OH-dG immunoassay), A2780; format: cell-based, human; conditions: 24 h, 10, 50, 100 μM tested
Protocol: as §3

[10] = 10 μM, percentage of control cells
[11] = 50 μM, percentage of control cells
[12] = 100 μM, percentage of control cells
[13] = CalcuSyn, read-out: IC50, MTT assay

| SMILES | IC50 (HOSE cells [1]) | concentration up to which viability was unchanged (HOSE cells [1]) | 8-OH-dG (HOSE cells [2]; 10 μM) | 8-OH-dG (HOSE cells [2]; 50 μM) | 8-OH-dG (HOSE cells [2]; 100 μM) | SOD activity, effect in words [3] | IC50 (HPMCs) | concentration up to which viability was maintained (HPMCs) | SOD activity, effect in words [4] | generation of ROS, effect in words (OVCAR-3 cells [5]) | caspase-3 activity, effect in words (caspase-3) | CAT activity, effect in words (catalase (CAT)) | caspase-9 activity, effect in words (caspase-9) | IC50 (SKOV-3) | generation of ROS, effect in words (A2780 cells [6]) | SA-β-Gal activity (senescence), effect in words (A2780 cells [7]) | concentration of 8-OH-dG (oxidative DNA damage), effect in words (OVCAR-3 cells [8]) | IC50 (A2780; [13]) | IC50 (OVCAR-3) | concentration of 8-OH-dG (oxidative DNA damage), effect in words (A2780 cells [9]) | further results |
| --- | --- | --- | --- | --- | --- | --- | --- | --- | --- | --- | --- | --- | --- | --- | --- | --- | --- | --- | --- | --- | --- |
| Oc1ccc(/C=C/c2ccc(O)c(O)c2)cc1O [3,3′,4,4′-THS, 3,3′,4,4′-tetrahydroxy-trans-stilbene] | 502 µM | ≤ 400 µM | 103 ± 3% | 76 ± 3^∗# % | 71 ± 2^∗# % | increased SOD at 10 μM and decreased the activity of the enzyme at 50 and 100 μM | 496 µM | up to 300 μM | downregulated it at 50 and 100 μM | remarkably stronger | increased the activity of the same caspases as RVT did | downregulated it in the SKOV-3 cells at 50 and 100 μM | increased the activity of the same caspases as RVT did | 10 µM | markedly upregulated the generation of ROS | increased SA-β-Gal at each dose, reaching the highest activity at as low a dose as 10 μM | increasing the concentration of 8-OH-dG in the OVCAR-3 and SKOV-3 cells starting from a dose of 10 μM | 4 µM | 50 µM | only concentrations of 50 and 100 μM were effective | viability at 10 µM (SKOV-3; SK-OV-3, 10 μM, 24 h, percentage of control cells): 50 ± 2%; viability at 50 µM (SKOV-3; SK-OV-3, 50 μM, 24 h, percentage of control cells): 32 ± 12%; viability at 100 µM (SKOV-3; SK-OV-3, 100 μM, 24 h, percentage of control cells): 24 ± 7%; viability at 10 µM (A2780; [10]): 20 ± 3%; viability at 50 µM (A2780; [11]): 14 ± 3%; viability at 100 µM (A2780; [12]): 13 ± 3%; IC50 (A2780; read-out: IC50 (range over MTT and LDH release assays)): 4 to 6 µM; viability at 10 µM (OVCAR-3; [10]): 75 ± 3%; viability at 50 µM (OVCAR-3; [11]): 50 ± 3%; viability at 100 µM (OVCAR-3; [12]): 48 ± 3% |
| Oc1ccc(/C=C/c2cc(O)cc(O)c2)cc1 [RVT, 3,4′,5-trihydroxy-trans-stilbene, reference compound] | 485 µM | ≤ 400 µM | 103 ± 5% | 102 ± 5% | 82 ± 4^∗ % | upregulated activity of the enzyme | 465 µM | up to 300 μM | failed to affect SOD activity | stimulated the release of ROS | activated caspases 9 and 3, and this activity was evident at 50 and 100 μM | stimulated the enzyme at 10 μM in the OVCAR-3 cells, at 50 μM in the A2780, OVCAR-3, and SKOV-3 cells, and at 100 μM in the OVCAR-3 and SKOV-3 cells | activated caspases 9 and 3, and this activity was evident at 50 and 100 μM | 346 µM | (at 50 and 100 μM) inhibited the production of ROS | did not change | evident only at 100 μM | 48 µM | 480 µM | induced DNA injury in A2780 and SKOV-3 at 50 and 100 μM |  |
